Reference: US8476451B2 (priority 2007, dated 2013)
≈ marks a conversion by molar mass, not a printed value.

Assays:
[1] = tested on: SW-480 human colon adenocarcinoma cells; test: Growth inhibition, MTT assay, SW-480; type: cell-based; conditions: for Activity relative to tubulysin D in SW-480, in words: colon cancer cell line SW-480
Procedure: (§1) Cell lines were obtained from the American Type Culture Collection (ATCC) and the German Collection of Microorganisms and Cell Cultures (DSMZ). All cell lines were cultivated under conditions recommended by their respective depositors. Growth inhibition was measured in microtiter plates. Aliquots of 120 μl of the suspended cells (50,000/mL) were given to 60 μL of a serial dilution of the inhibitor and incubated at 37° C. and 10% CO2. After 5 days, when control cells had grown to confluence state, the metabolic activity in each well was determined using an MTT assay.

[2] = Growth inhibition, MTT assay, L929; type: cell-based, Mouse; conditions: mouse, L929 mouse fibroblast cells; cell line not given; read-out: Cytotoxicity (text, refers to Table 2)
Procedure: as §1

[3] = tested on: L929 mouse fibroblast cells; test: Growth inhibition, MTT assay, L929; type: cell-based; conditions: for Cytotoxicity / activity relative to tubulysin D, in words: statement on Table 2 cell lines
Procedure: as §1

[4] = tested on: KB-3-1 human cervix carcinoma cells; test: Growth inhibition, MTT assay, KB-3-1; type: cell-based; conditions: KB 3-1, 120 h; human cervix carcinoma (DSMZ ACC 158); MTT after 5 days; read-out: IC50 (ng/mL) KB-3-1
Procedure: as §1

| Compound | Cytotoxicity / activity relative to tubulysin D, in words [3] | other results |
| --- | --- | --- |
| CC[C@H](C)[C@H](NC(=O)[C@H]1CCCCN1C)C(=O)N(C)[C@H](C[C@@H](OC(C)=O)c1nc(C(=O)N[C@@H](Cc2ccccc2)C[C@H](C)C(=O)O)cs1)C(C)C [Analogue 10, 4-({2-[1-Acetoxy-4-methyl-3-(methyl-{3-methyl-2-[(1-methyl-piperidine-2-carbonyl)-amino]-pentanoyl}-amino)-pentyl]-thiazole-4-carbonyl}-amino)-2-methyl-5-phenyl-pentanoic acid] | – | Activity relative to tubulysin D in SW-480, in words [1]: more active than tubulysin D |
| CC[C@H](C)[C@H](NC(=O)[C@H]1CCCCN1C)C(=O)N(C)[C@H](C[C@@H](OC(C)=O)c1nc(C(=O)NC)cs1)C(C)C [Analogue 11, acetic acid 4-methyl-1-(4-methylcarbamoyl-thiazol-2-yl)-3-(methyl-{3-methyl-2-[(1-methyl-piperidine-2-carbonyl)-amino]-pentanoyl}-amino)-pentyl ester] | – | IC50 at 5 days [2]: 2 ng/mL (≈ 3.62 nM) |
| CC[C@H](C)[C@H](NC(=O)[C@H]1CCCCN1C)C(=O)N(COC(=O)CC(C)C)[C@H](C[C@@H](OC(C)=O)c1nc(C(=O)O)cs1)C(C)C [Analogue 5, 2-[1-acetoxy-4-methyl-3-((3-methyl-butyryloxymethyl)-{3-methyl-2-[(1-methyl-piperidine-2-carbonyl)-amino]-pentanoyl}-amino)-pentyl]-thiazole-4-carboxylic acid] | maintained good activity | – |
| CC[C@H](C)[C@H](NC(C)=O)C(=O)N(COC(=O)CC(C)C)[C@H](C[C@@H](OC(C)=O)c1nc(C(=O)N[C@@H](Cc2ccccc2)C[C@H](C)C(=O)O)cs1)C(C)C [Analogue 7] | drastic decrease in activity | – |
| CC[C@H](C)[C@H](NC(=O)[C@H]1CCCCN1C)C(=O)N(COC(=O)CC(C)C)[C@H](C[C@@H](OC(C)=O)c1nc(C(=O)NC)cs1)C(C)C [Analogue 4, 3-methyl-butyric acid ({1-[2-acetoxy-2-(4-methylcarbamoyl-thiazol-2-yl)-ethyl]-2-methyl-propyl}-{3-methyl-2-[(1-methyl-piperidine-2-carbonyl)-amino]-pentanoyl}-amino)-methyl ester] | maintained good activity | – |
| CC[C@H](C)[C@H](NC(=O)CN(C)C)C(=O)N(COC(=O)CC(C)C)[C@H](C[C@@H](OC(C)=O)c1nc(C(=O)N[C@@H](Cc2ccccc2)C[C@H](C)C(=O)O)cs1)C(C)C [Analogue 6, 4-[(2-{1-acetoxy-3-[[2-(2-dimethylamino-acetylamino)-3-methyl-pentanoyl]-(3-methyl-butyryloxymethyl)-amino]-4-methyl-pentyl}-thiazole-4-carbonyl)-amino]-2-methyl-5-phenyl-pentanoic acid] | essentially equipotent with tubulysin D | Activity relative to tubulysin D in SW-480, in words [1]: more active than tubulysin D |
| CC[C@H](C)[C@H](NC(=O)[C@H]1CCCCN1C)C(=O)N(COC(=O)CC(C)C)[C@H](C[C@@H](O)c1nc(C(=O)N[C@@H](Cc2ccccc2)C[C@H](C)C(=O)O)cs1)C(C)C [Analogue 9] | minimal drop in cytotoxicity relative to the natural product | IC50 ([3]; L929, 120 h, mouse fibroblasts (DSMZ ACC 2), MTT after 5 days, read-out: IC50 (ng/mL) L929): 0.25 ng/mL (≈ 0.318 nM); IC50 ([1]; SW480, 120 h, human colon adenocarcinoma (ATCC CCL-228), MTT after 5 days, read-out: IC50 (ng/mL) SW-480): 0.057 ng/mL (≈ 0.0725 nM); IC50 [4]: 0.22 ng/mL (≈ 0.28 nM) |
| CC[C@H](C)[C@H](N=[N+]=[N-])C(=O)N(COC(=O)CC(C)C)[C@H](C[C@@H](OC(C)=O)c1nc(C(=O)N[C@@H](Cc2ccccc2)C[C@H](C)C(=O)O)cs1)C(C)C [Analogue 8, 4-[(2-{1-acetoxy-3-[(2-azido-3-methyl-pentanoyl)-(3-methyl-butyryloxymethyl)-amino]-4-methyl-pentyl}-thiazole-4-carbonyl)-amino]-2-methyl-5-phenyl-pentanoic acid] | drastic decrease in activity | – |
| CC[C@H](C)[C@H](NC(=O)[C@H]1CCCCN1C)C(=O)N(COC(=O)CC(C)C)[C@H](C[C@@H](OC(C)=O)c1nc(C(=O)NCCc2ccccc2)cs1)C(C)C [Analogue 2, 3-methyl-butyric acid ({1-[2-acetoxy-2-(4-phenethylcarbamoyl-thiazol-2-yl)-ethyl]-2-methyl-propyl}-{3-methyl-2-[(1-methyl-piperidine-2-carbonyl)-amino]-pentanoyl}-amino)-methyl ester] | cytoxicity comparable to the parent tubulysin | – |
| CC[C@H](C)[C@H](NC(=O)[C@H]1CCCCN1C)C(=O)N(COC(=O)CC(C)C)[C@H](C[C@@H](OC(C)=O)c1nc(C(=O)NCCCC(=O)O)cs1)C(C)C [Analogue 3, 3-Methyl-butyric acid ((1-{2-acetoxy-2-[4-(3-carboxy-propylcarbamoyl)-thiazol-2-yl]-ethyl}-2-methyl-propyl)-{3-methyl-2-[(1-methyl-piperidine-2-carbonyl)-amino]-pentanoyl}-amino)-methyl ester] | cytoxicity comparable to the parent tubulysin | – |
